For orientation: inhibition means how much of the control response was suppressed.

Read-outs that look alike come from different tables or passages of the source.

One test deals with Botrytis cinerea. Briefly: Sterilization test (growth inhibition of Botrytis cinerea in potato dextrose medium, 96-well microplate, turbidity 405 nm). The format is cell-based. The settings on record: for inhibition at 0.1 ppm: drug I alone 0.1 ppm; for inhibition at 0.02 ppm / Growth inhibition rate: drug II alone 0.02 ppm; for inhibition at 10 ppm: drug II alone 10 ppm. As to the method: The solutions thus obtained were mixed to prepare fungicidal compositions.
Conidia of Botrytis cinerea were added to and dispersed in a potato dextrose culture medium. A fungicidal composition was added thereto and mixed. This was dispensed in a 96-well microplate and cultured at 20° C. for 3 days in a dark setting. Then, the turbidity was measured at a wavelength of 405 nm in a microplate reader. From comparison with the measured value of turbidity in the case of non-treatment (without the addition of the fungicidal composition), the growth inhibition rate of Botrytis cinerea (%) was calculated. The test was carried out in duplicate. Further, the expected value of the growth inhibition was calculated based on Colby's equation.
In addition, the Colby's equation is E=M+N−MN/100. Here, E is the expected value of a growth inhibition rate (%), M is the growth inhibition rate (%) calculated from the measurement with the use of the drug I alone, and N is the growth inhibition rate (%) calculated from the measurement with the use of the drug II alone. Additionally, in Tables, the expected values with the use of the drug alone were not shown, because they were the same as the values calculated from the measurement.
At the concentrations shown in Tables 6 to 8, the drug I and the drug II were dissolved separately in dimethyl sulfoxide. The obtained solution was mixed to prepare a fungicidal composition.
Using the same methods as in Example 1 and Comparative Example 1, the sterilization test was carried out. Additionally, in Tables, the expected values with the use of the drug alone were not shown, because they were the same as the values calculated from the measurement.

Test [1] deals with cucumber gray mold disease pathogens (Botrytis cinerea). Briefly: Control test for cucumber gray mold disease (sprayed cucumber seedlings). It is filed as in vivo. The conditions noted are these: for pest or weed control at 10 ppm: drug I alone 10 ppm; for pest or weed control at 100 ppm: drug II alone 100 ppm; for pest or weed control at 400 ppm: drug II alone 400 ppm; for pest or weed control at 25 ppm: drug II alone 25 ppm. The protocol: The drug I and the drug II were dissolved in an organic solvent and a surfactant, and the prepared mixed emulsifiable concentrate was diluted with water to a predetermined concentration, and sprayed to cucumber seedlings that had been cultivated in unglazed pots (cultivar “Sagamihanjiro” cotyledon stage). Additionally, in Tables, the symbol A indicating the drug I represents a nitrogen-containing heterocyclic compound represented by the formula (A), the symbol B indicating the drug I represents a nitrogen-containing heterocyclic compound represented by the formula (B), and the symbol C indicating the drug I represents a nitrogen-containing heterocyclic compound represented by the formula (C). Further, the number indicating the drug II represents each of the compounds described in the numbers described above. Additionally, “-” in Tables represents that the drug was not used.
After air-drying at room temperature, a suspension of the conidia of cucumber gray mold disease pathogens (Botrytis cinerea) was inoculated by dropwise addition and held in a dark room at 20° C. with a high humidity for 3, 4, or 5 days. By investigation on the state of lesion appearance in leaves with comparison with a non-treatment case, the controlling effect was determined. The test was carried out in duplicate. In addition, the expected value of the controlling effect was calculated based on Colby's equation.
(§1) At the same time, in Comparative Example, in the case of using the drug I only and the case of using the drug II only, the test was carried out by the same method.
(§2) Additionally, the Colby's equation is E=M+N−MN/100. Here, E is the expected value of the controlling effect (%), M is the controlling effect (%) calculated from the measurement with the use of the drug I alone, and N is the controlling effect (%) calculated from the measurement with the use of the drug II alone. Additionally, in Tables, the expected values with the use of the drug alone were the same as the values calculated from the measurement, and were thus not shown.

Test [2] relates to cucumber powdery mildew disease pathogens (Sphaerotheca fuliginea). Briefly: Control test for cucumber powdery mildew disease (sprayed cucumber seedlings). The conditions noted are these: held 7 days after inoculation. The format is in vivo. As to the method: The drug I and the drug II were dissolved in an organic solvent and a surfactant, and the prepared mixed emulsifiable concentrate was diluted with water to a predetermined concentration, and sprayed to cucumber seedlings that had been cultivated in unglazed pots (cultivar “Sagamihanjiro”, cotyledon stage). Additionally, in Tables, the symbol A indicating the drug I represents a nitrogen-containing heterocyclic compound represented by the formula (A), the symbol B indicating the drug I represents a nitrogen-containing heterocyclic compound represented by the formula (B), and the symbol C indicating the drug I represents a nitrogen-containing heterocyclic compound represented by the formula (C). Further, in Tables, the number indicating the drug II represents each of the compounds described in the numbers described above. Additionally, “-” in Tables represents that the drug was not used.
After air-drying at room temperature, the conidia of cucumber powdery mildew disease pathogens (Sphaerotheca fuliginea) was inoculated by shaking off and held in a warm room for 7 days. By investigation on the state of lesion appearance in leaves with comparison with a non-treatment case, the controlling effect was determined. The test was carried out in duplicate. In addition, the expected value of the controlling effect was calculated based on Colby's equation.
as §1, §2

The mark [3] stands for this setting: Botrytis cinerea, Example 1 (Tables 1-5), read-out: Growth inhibition rate.
Where [4] appears, read: Botrytis cinerea, Example 2 (Tables 6-8), read-out: Growth inhibition rate.
[5] abbreviates: Botrytis cinerea, 72 h, read-out: Control effect (%), 3 days after inoculation.
Setting [6] is: Botrytis cinerea, 96 h, read-out: Control effect (%), 4 days after inoculation.
Where [7] appears, read: Botrytis cinerea, 120 h, read-out: Control effect (%), 5 days after inoculation.
[8] abbreviates: Botrytis cinerea, 120 h, read-out: Control effect, Table 10, 5 days after inoculation.
Setting [9] is: Botrytis cinerea, 96 h, read-out: Control effect, Table 9, 4 days after inoculation.
The mark [10] stands for this setting: Botrytis cinerea, 96 h, read-out: Control effect, Table 11, 4 days after inoculation.
The mark [11] stands for this setting: Botrytis cinerea, 96 h, 4 days after inoculation, read-out: Control effect (%).
Setting [12] is: Botrytis cinerea, 96 h, Table 9, 4 days after inoculation, read-out: Control effect.
[13] abbreviates: Table 10, 5 days after inoculation, drug II alone 1.6 ppm.
[14] abbreviates: Botrytis cinerea, 120 h, 5 days after inoculation, read-out: Control effect (%).

Regarding `CC1(C)CN=C(c2cnc3ccccc3c2)c2cccc(F)c2O1` [A], the values for the inhibition at 0.1 ppm in the test on Botrytis cinerea (setting [3]) and in the test on Botrytis cinerea (setting [4]) were 19% and 20%, respectively. Further, the pest or weed control at 10 ppm in test [1] (setting [5]) came to 52%; in test [1] (setting [6]), 37%; in test [1] (setting [7]), 60%; in test [1] (setting [8]) it was 43%. Besides, the “Control effect (%)” value in test [2] (drug I alone 10 ppm) came to 40%.

For the compound `Cc1nc2c(F)cccc2cc1Oc1cccc(F)c1C(C)(C)O` [B], the inhibition at 0.1 ppm is 19% with Botrytis cinerea (setting [3]) and 18% with Botrytis cinerea (setting [4]). In addition, the pest or weed control at 10 ppm in test [1] (setting [5]) was found to be 54%; in test [1] (setting [6]) it was 37%; in test [1] (setting [9]) it was 50%; in test [1] (setting [10]), 78%; in test [1] (setting [7]), 64%; in test [1] (setting [8]) it was 44%. The “Control effect (%)” value in test [2] (drug I alone 10 ppm) was determined as 60%.

Consider `Cc1nc2c(F)c(F)ccc2cc1Oc1cccc(F)c1C(C)(C)O` [C], for which the results for the inhibition at 0.1 ppm in the test with Botrytis cinerea (setting [3]) and with Botrytis cinerea (setting [4]) were 19% and 21%, respectively. The pest or weed control at 10 ppm in test [1] (setting [5]) stood at 54%; in test [1] (setting [6]), 19%; in test [1] (setting [9]), 51%; in test [1] (setting [10]), 76%; in test [1] (setting [7]) it was 67%; in test [1] (setting [8]) it was 47%. In test [2] (drug I alone 10 ppm), the “Control effect (%)” value worked out at 30%.

With `CCCOC/C(=N\c1ccc(Cl)cc1C(F)(F)F)n1ccnc1` [Drug 2, Triflumizole], in the test on Botrytis cinerea (Botrytis cinerea, Example 1 (Tables 1-5), drug II alone 2 ppm, read-out: Growth inhibition rate), the inhibition at 2 ppm is 59%. The pest or weed control at 100 ppm amounted to 1% in test [1] (setting [11]) and 33% in test [1] (Botrytis cinerea, 120 h, Table 10, 5 days after inoculation, read-out: Control effect). The pest or weed control at 400 ppm in test [1] (setting [12]) came out at 64%.

`COC(=O)NC(=S)Nc1ccccc1NC(=S)NC(=O)OC` [Drug 3, Thiophanate-methyl]: in the test on Botrytis cinerea (setting [3]), the inhibition at 0.02 ppm was found to be 0%. Also, the pest or weed control at 1.6 ppm in test [1] (Botrytis cinerea, 96 h, Table 9, 4 days after inoculation, drug II alone 1.6 ppm, read-out: Control effect) was found to be 3%. The pest or weed control at 6.3 ppm in test [1] (Botrytis cinerea, 120 h, Table 10, 5 days after inoculation, drug II alone 6.3 ppm, read-out: Control effect) is 89%.

In the case of `CC(=O)O.CC(=O)O.CC(=O)O.NC(N)=NCCCCCCCCNCCCCCCCCN=C(N)N` [Drug 4, Iminoctadine acetate], the Growth inhibition rate in the test with Botrytis cinerea (Example 1 (Tables 1-5)) worked out at 27%. The Control effect is reported as 0% in test [1] (setting [13]) and 41% in test [1] (Table 10, 5 days after inoculation, drug II alone 6.3 ppm).

For the compound `CCCCCCCCCCCCc1ccc(S(=O)(=O)O)cc1.CCCCCCCCCCCCc1ccc(S(=O)(=O)O)cc1.CCCCCCCCCCCCc1ccc(S(=O)(=O)O)cc1.NC(N)=NCCCCCCCCNCCCCCCCCN=C(N)N` [Drug 5, Iminoctadine albesilate], the Growth inhibition rate in the test with Botrytis cinerea (Example 1 (Tables 1-5)) was found to be 6%. In addition, the Control effect was 0% in test [1] (Table 10, 5 days after inoculation, drug II alone 0.4 ppm) and 0% in test [1] (setting [13]).

For the compound `COC(=O)NCc1cc(/C(C)=N/OCc2cccc(C)n2)ccc1Cl` [Drug 29, Pyribencarb], the inhibition at 0.02 ppm with Botrytis cinerea (setting [3]) was 22%. Moreover, the pest or weed control at 0.4 ppm in test [1] (Botrytis cinerea, 96 h, 4 days after inoculation, drug II alone 0.4 ppm, read-out: Control effect (%)) is 0%. For the same compound, the pest or weed control at 1.6 ppm in test [1] (Botrytis cinerea, 96 h, 4 days after inoculation, drug II alone 1.6 ppm, read-out: Control effect (%)) amounted to 0%. Also, in test [1] (Botrytis cinerea, 96 h, 4 days after inoculation, drug II alone 6.3 ppm, read-out: Control effect (%)), the pest or weed control at 6.3 ppm was found to be 37%.

Take `Cn1nnnc1/C(=N\OCc1cccc(NC(=O)OC(C)(C)C)n1)c1ccccc1` [Drug 38]: in the test on Botrytis cinerea (setting [3]), the inhibition at 10 ppm is 9%. In test [1] (setting [12]), the pest or weed control at 100 ppm is 0%.

On to `C/C(=N\C#N)N(C)Cc1ccc(Cl)nc1` [Drug 42, Acetamiprid], for which, in the test on Botrytis cinerea (setting [4]), the inhibition at 10 ppm is 0%. Further, the pest or weed control at 25 ppm in test [1] (setting [11]) was found to be 0%. Besides, the pest or weed control at 400 ppm in test [1] (setting [14]) came out at 0%.

With `C[C@@H]1[C@@H](c2ccc(Cl)cc2)SC(=O)N1C(=O)NC1CCCCC1` [Drug 43, Hexythiazox], the inhibition at 10 ppm with Botrytis cinerea (setting [4]) was 0%. The pest or weed control at 400 ppm in test [1] (setting [10]) was 2%. Further, in test [1] (setting [7]), the pest or weed control at 100 ppm is 0% and the pest or weed control at 400 ppm worked out at 0%.

For `CCc1ccc(C(=O)NN(C(=O)c2cc(C)cc(C)c2)C(C)(C)C)cc1` [Drug 44, Tebufenozide], the inhibition at 10 ppm in the test with Botrytis cinerea (setting [4]) was 0%. Also, the pest or weed control at 400 ppm in test [1] (Botrytis cinerea, 96 h, Table 11, 4 days after inoculation, read-out: Control effect) is 22%; in test [1] (setting [14]) it was 0%.

On to `CCCCc1c(C)nc(NCC)nc1OS(=O)(=O)N(C)C` [Drug 60, Bupirimate], for which, in test [1] (setting [5]), the pest or weed control at 25 ppm is 0%. In addition, the “Control effect (%)” value in test [2] (drug II alone 6.3 ppm) is on record as 10%; in test [2] (drug II alone 25 ppm) it was 50%.

Consider `Cc1cc(C(F)(F)F)nn1CC(=O)N1CCC(c2nc(C3=NOC(c4c(F)cccc4F)C3)cs2)CC1` (stereo not drawn) [Drug 61], for which the pest or weed control at 6.3 ppm in test [1] (Botrytis cinerea, 72 h, 3 days after inoculation, drug II alone 6.3 ppm, read-out: Control effect (%)) was determined as 0%. In test [1] (Botrytis cinerea, 72 h, 3 days after inoculation, read-out: Control effect (%)), the pest or weed control at 100 ppm turned out to be 0%. In test [2] (drug II alone 6.3 ppm), the “Control effect (%)” value came to 0%.

Values taken from US9901097B2, “Agricultural and horticultural fungicidal composition” (Nippon Soda Co., Ltd., priority 2011, dated 2018).
